Results taken from patent US9808003B2, “Herbicidally active 2-(substituted-phenyl)-cyclopentane-1,3-dione compounds and derivatives thereof” (Syngenta Limited, priority 2013, dated 2017).

Experiments:
Assay in all cases: Test 1A glasshouse assay, post-emergence herbicidal activity
Type in all cases: in vivo
[1] = system: Echinochloa crus-galli (ECHCG); conditions: Echinochloa crus-galli, 312 h, application rate 250 g/ha, 13 days after application, visual (100%=total damage; 0%=no damage), read-out: Post-emergence Herbicidal Activity (% Phytotoxicity) ECHCG
Description: (§1) Seeds of a variety of test species were sown in standard soil in pots. After cultivation for one day (pre-emergence) or after 8 days cultivation (post-emergence) under controlled conditions in a glasshouse (at 24/16° C., day/night; 14 hours light; 65% humidity), the plants were sprayed with an aqueous spray solution derived from the formulation of the technical active ingredient in acetone/water (50:50) solution containing 0.5% Tween 20 (polyoxyethelyene sorbitan monolaurate, CAS RN 9005-64-5). The test plants were then grown under controlled conditions in a glasshouse (at 24/16° C., day/night; 14 hours light; 65% humidity) and watered twice daily. 13 days after application of the test herbicide, for pre- and post-emergence, the test was evaluated visually for percentage phytotoxicity to the plant (where 100%=total damage to plant; 0%=no damage to plant).
(§2) Lolium perenne (LOLPE), Alopecurus myosuroides (ALOMY), Echinochloa crus-galli (ECHCG), and Avena fatua (AVEFA); these are all grassy monocotyledonous weeds.

[2] = system: Lolium perenne (LOLPE); conditions: Lolium perenne, 312 h, application rate 250 g/ha, 13 days after application, visual (100%=total damage; 0%=no damage), read-out: Post-emergence Herbicidal Activity (% Phytotoxicity) LOLPE
Description: as §1, §2

[3] = system: Avena fatua (AVEFA); conditions: Avena fatua, 312 h, application rate 250 g/ha, 13 days after application, visual (100%=total damage; 0%=no damage), read-out: Post-emergence Herbicidal Activity (% Phytotoxicity) AVEFA
Description: as §1, §2

[4] = system: Alopecurus myosuroides (ALOMY); conditions: Alopecurus myosuroides, 312 h, application rate 250 g/ha, 13 days after application, visual (100%=total damage; 0%=no damage), read-out: Post-emergence Herbicidal Activity (% Phytotoxicity) ALOMY
Description: as §1, §2

SMILES	pest or weed control at 250 g/ha [1] [%]	pest or weed control at 250 g/ha [2] [%]	pest or weed control at 250 g/ha [3] [%]	pest or weed control at 250 g/ha [4] [%]
CCC(CC1CC(=O)C(c2c(C)cc(C)cc2C)C1=O)NC(=O)c1ccccc1 (stereo not drawn) [Compound A88]	100	100	90	80
Cc1cc(C)c(C2C(=O)CC(CCNC(=O)c3cccc(F)n3)C2=O)c(C)c1 (stereo not drawn) [Compound A89A]	100	100	100	100
COc1cccc(C(=O)NCCC2CC(=O)C(c3c(C)cc(C)cc3C)C2=O)n1 (stereo not drawn) [Compound A91]	80	80	80	80
CCOc1cccc(C(=O)NCCC2CC(=O)C(c3c(C)cc(C)cc3C)C2=O)n1 (stereo not drawn) [Compound A92]	70	70	80	80
Cc1cc(C)c(C2C(=O)CC(CCNC(=O)c3cccc(-c4ccccc4)n3)C2=O)c(C)c1 (stereo not drawn) [Compound A93]	50	70	40	70
Cc1cc(C)c(C2C(=O)CC(CCNC(=O)c3cccc(C(F)(F)F)n3)C2=O)c(C)c1 (stereo not drawn) [Compound A94]	90	80	100	90
Cc1cc(C)c(C2C(=O)CC(CCNC(=O)c3ncccc3F)C2=O)c(C)c1 (stereo not drawn) [Compound A96]	100	100	100	100
Cc1cc(C)c(C2C(=O)CC(CCNC(=O)c3ccc(F)cn3)C2=O)c(C)c1 (stereo not drawn) [Compound A97]	100	100	100	100
Cc1cc(-c2ncc(Cl)cc2F)cc(C)c1C1C(=O)CC(CCNC(=O)c2ccccn2)C1=O (stereo not drawn) [Compound A102]	100	100	100	100
Cc1cc(-c2ccc(Cl)cc2)cc(C)c1C1C(=O)CC(CCNC(=O)c2ccccn2)C1=O (stereo not drawn) [Compound A104]	100	100	90	90
Cc1cc(Cl)c(C2C(=O)CC(CCNC(=O)c3ccccn3)C2=O)c(Cl)c1 (stereo not drawn) [Compound A105]	100	90	90	40
O=C(NCCC1CC(=O)C(c2c(Cl)cc(-c3ccc(F)cc3)cc2Cl)C1=O)c1ccccn1 (stereo not drawn) [Compound A106]	100	100	100	90
Cc1cc(-c2cc(F)cc(F)c2)cc(C)c1C1C(=O)CC(CCNC(=O)c2ccccn2)C1=O (stereo not drawn) [Compound A109]	100	100	100	100
Cc1cc(-c2ccc(F)c(Cl)c2)cc(C)c1C1C(=O)CC(CCNC(=O)c2ccccn2)C1=O (stereo not drawn) [Compound A110]	100	100	100	90
Cc1cc(-c2cccc(Cl)c2)cc(C)c1C1C(=O)CC(CCNC(=O)c2ccccn2)C1=O (stereo not drawn) [Compound A111, N-[2-[3-[4-(3-chlorophenyl)-2,6-dimethyl-phenyl]-2,4-dioxo-cyclopentyl]ethyl]pyridine-2-carboxamide]	100	100	100	100
CC#Cc1cc(C)c(C2C(=O)CC(CCNC(=O)c3cccc(F)n3)C2=O)c(C)c1 (stereo not drawn) [Compound A114]	100	100	100	100
CC#Cc1cc(C)c(C2C(=O)CC(CCNC(=O)C(C)(C)C)C2=O)c(C)c1 (stereo not drawn) [Compound A115]	100	100	100	100

SMILES	pest or weed control at 250 g/ha [1] [%]	pest or weed control at 250 g/ha [2] [%]	pest or weed control at 250 g/ha [3] [%]	pest or weed control at 250 g/ha [4] [%]
CC#Cc1cc(C)c(C2C(=O)CC(CCNC(=O)c3ccc(F)cc3)C2=O)c(C)c1 (stereo not drawn) [Compound A116]	100	100	100	90
Cc1cc(-c2ccc(F)cn2)cc(C)c1C1C(=O)CC(CCNC(=O)c2ccccn2)C1=O (stereo not drawn) [Compound A117]	100	100	100	100
Cc1cc(C)c(C2C(=O)CC(CCNC(=O)c3ccc(Cl)cn3)C2=O)c(C)c1 (stereo not drawn) [Compound A118]	100	100	100	100
Cc1ccnc(C(=O)NCCC2CC(=O)C(c3c(C)cc(C)cc3C)C2=O)c1 (stereo not drawn) [Compound A119]	100	90	90	100
Cc1cc(C)c(C2C(=O)CC(CCNC(=O)c3cc(Br)ccn3)C2=O)c(C)c1 (stereo not drawn) [Compound A121]	100	100	90	90
COc1cc(C)c(C2C(=O)CC(CCNC(=O)c3ccccn3)C2=O)c(C)c1 (stereo not drawn) [Compound A122]	100	100	90	100
Cc1cccc(C)c1C1C(=O)CC(CCNC(=O)c2ccccn2)C1=O (stereo not drawn) [Compound A123]	90	100	100	100
Cc1cc(Cl)cc(C)c1C1C(=O)CC(CCNC(=O)c2ccccn2)C1=O (stereo not drawn) [Compound A124]	100	100	100	100
Cc1cc(Br)cc(C)c1C1C(=O)CC(CCNC(=O)c2ccccn2)C1=O (stereo not drawn) [Compound A125]	100	100	100	100
Cc1cc(OCC(F)(F)F)cc(C)c1C1C(=O)CC(CCNC(=O)c2ccccn2)C1=O (stereo not drawn) [Compound A126, N-[2-[3-[2,6-dimethyl-4-(2,2,2-trifluoroethoxy)phenyl]-2,4-dioxo-cyclopentyl]ethyl]pyridine-2-carboxamide]	100	100	100	100
Cc1cc(Oc2ncc(Cl)cc2F)cc(C)c1C1C(=O)CC(CCNC(=O)c2ccccn2)C1=O (stereo not drawn) [Compound A126A]	90	90	90	90
Cc1cc(Oc2ncc(C(F)(F)F)cc2Cl)cc(C)c1C1C(=O)CC(CCNC(=O)c2ccccn2)C1=O (stereo not drawn) [Compound A126B, N-[2-[3-[4-[[3-chloro-5-(trifluoromethyl)-2-pyridyl]oxy]-2,6-dimethyl-phenyl]-2,4-dioxo-cyclopentyl]ethyl]pyridine-2-carboxamide]	100	90	90	90
Cc1cc(-n2cc(Cl)cn2)cc(C)c1C1C(=O)CC(CCNC(=O)c2ccc(F)cn2)C1=O (stereo not drawn) [Compound A129]	100	100	100	100
Cc1cccc(C(=O)NCCC2CC(=O)C(c3c(C)cc(-n4cc(Cl)cn4)cc3C)C2=O)n1 (stereo not drawn) [Compound A130]	80	80	80	30
Cc1cc(-n2cc(Cl)cn2)cc(C)c1C1C(=O)CC(CCNC(=O)c2nc(Cl)ccc2Cl)C1=O (stereo not drawn) [Compound A131]	100	100	100	100
Cc1cc(-n2cc(Cl)cn2)cc(C)c1C1C(=O)CC(CCNC(=O)c2cccc(Cl)n2)C1=O (stereo not drawn) [Compound A132]	100	100	100	100
